Source: patent publication US11958816B1, “N′-({[(5-phenyl-1,3,4-oxadiazol-2-yl)sulfanyl]acetyl}oxy)benzenecarboximidamide as an antimicrobial compound” (KING FAISAL UNIVERSITY, priority 2023, dated 2024)

What was measured:
Format in all cases: cell-based
Escherichia coli = experiment: Agar plate disc-diffusion, antibacterial activity (inhibition zone); settings: nutrient agar, 37° C., 48 h, DMSO zone subtracted
Protocol: (§1) The agar plate disc-diffusion method was applied. […] The discs were then placed onto the surface of agar plates (nutrient agar for bacteria and Sabouraud's dextrose agar for fungi) seeded with the test organism. Each plate contained 15 mL of the agar medium, previously seeded with 0.2 mL of the broth culture of each organism pregrown for 18 hours. The plates were incubated at 37° C. for 48 h, and 72 h for fungi. The inhibition zones were measured in mm. Discs impregnated with DMSO were used as a control, and its inhibition zone was subtracted from the tested compound actual inhibition zone.

Pseudomonas aeruginosa = experiment: as above; settings: nutrient agar, 37° C., 48 h, DMSO zone subtracted
Protocol: as §1

Bacillus cereus = experiment: as above; settings: nutrient agar, 37° C., 48 h, DMSO zone subtracted
Protocol: as §1

Staphylococcus aureus = experiment: as above; settings: nutrient agar, 37° C., 48 h, DMSO zone subtracted
Protocol: as §1

Aspergillus flavus = experiment: Agar plate disc-diffusion, antifungal activity (inhibition zone); settings: Sabouraud's dextrose agar, 37° C., 72 h, DMSO zone subtracted
Protocol: as §1

[1] = test system: Chrysosporium keratinophilum; experiment: as above; settings: Sabouraud's dextrose agar, 37° C., 72 h, DMSO zone subtracted
Protocol: as §1

[2] = A = concentration of comp. = 10,000 μL
[3] = B = concentration of comp. = 30,000 μL
[4] = C = concentration of comp. = 50,000 μL

N/C(=N\OC(=O)CSc1nnc(-c2ccccc2)o1)c1ccccc1 [Compound 3, N′-({[(5-phenyl-1,3,4-oxadiazol-2-yl)sulfanyl]acetyl}oxy)benzenecarboximidamide]
inhibition zone, Escherichia coli, A (Escherichia coli; [2]): 25 mm
inhibition zone, Escherichia coli, B (Escherichia coli; [3]): 37 mm
inhibition zone, Escherichia coli, C (Escherichia coli; [4]): 45 mm
inhibition zone, Pseudomonas aeruginosa, A (Pseudomonas aeruginosa; [2]): 17 mm
inhibition zone, Pseudomonas aeruginosa, B (Pseudomonas aeruginosa; [3]): 24 mm
inhibition zone, Pseudomonas aeruginosa, C (Pseudomonas aeruginosa; [4]): 36 mm
inhibition zone, Bacillus Cereus, A (Bacillus cereus; [2]): 23 mm
inhibition zone, Bacillus Cereus, B (Bacillus cereus; [3]): 28 mm
inhibition zone, Bacillus Cereus, C (Bacillus cereus; [4]): 40 mm
inhibition zone, Staphylococcus aureus, A (Staphylococcus aureus; [2]): 24 mm
inhibition zone, Staphylococcus aureus, B (Staphylococcus aureus; [3]): 28 mm
inhibition zone, Staphylococcus aureus, C (Staphylococcus aureus; [4]): 37 mm
inhibition zone, Aspergillus flavus, A (Aspergillus flavus; [2]): 24 mm
inhibition zone, Aspergillus flavus, B (Aspergillus flavus; [3]): 29 mm
inhibition zone, Aspergillus flavus, C (Aspergillus flavus; [4]): 41 mm
inhibition zone, Chrysosporium keratinophilum, A [1, 2]: 23 mm
inhibition zone, Chrysosporium keratinophilum, B [1, 3]: 26 mm
inhibition zone, Chrysosporium keratinophilum, C [1, 4]: 40 mm
